In data set [1] the test system is multi-drug resistant breast carcinoma cell line NCI/ADR. Description: SRB cytotoxicity assay, NCI/ADR. Type of data set: cell-based, human. As for the experimental part: (§1) Compounds of the invention may be screened for cytotoxicity using conventional assays well known to those skilled in the art. For example, cytotoxicity of the compounds may be determined by the SRB assay as disclosed in Skehan et al., J. Natl. Cancer Inst. 82:1107-1112 (1990), which is incorporated herein by reference. In the SRB assay, the following cultured cells are trypsinized, counted and diluted to the following concentrations per 100 μl with growth medium: MCF-7, 5000; NCI/ADR-Res, 7500; NCI-H460, 5000; A549, 5000; Skov3, 7500; and SF-268, 7500. The cells are seeded at 100 μl/well in 96-well microtiter plates. Twenty-four hours later, 100 μl of a test epothilone compound of the invention (ranging in concentration from 1000 nM to 0.001 nM diluted in growth medium) is added to each well. After incubation, with the compound for a period of days, the cells are fixed with 100 μl of 10% trichloroacetic acid (“TCA”) at 4 degrees for 1 hour, and stained with 0.2% sulforhodamine B (SRB)/1% acetic acid, and the bound SRB is then extracted with 200 μl of 10 mM Tris base. The amount of bound dye is determined by OD 515 nm, which correlates to the total cellular protein contents. The data is analyzed using standard statistical methodologies (such as those available with the software sold as KALEIDA GRAPH® by Synergy Software of Reading, Pa.) and the IC50s are calculated.
(§2) Human breast carcinoma cell line MCF-7, multi-drug resistant breast carcinoma cell line NCI/ADR, were obtained from the National Cancer Institute. Human non-small cell lung cancer cell line A549 and human ovarian cancer cell line SKOV-3 were obtained from American Type Culture Collection (Manassas, Va.). All cell lines were maintained in RPMI-1640 medium (Gibco/BRL, Rockville, Md.) supplemented with 2 mM L-glutamine, 25 mM HEPES and 10% FBS (Hyclone, Logan, Utah). Cells were maintained in a humidified incubator at 37° C. in 5% CO2.
(§3) Tumor cells were seeded in 100 μl at 5000 (MCF-7), 7500 (NCI/ADR), 5000 (A549) and 7500 (SKOV3) cells per well in 96-well plates. Cells were allowed to adhere for 24 hours. Each compound ranging from 0.001 to 1000 nM in 100 μl was added to cells in duplicate wells. After 3 days, cells were fixed at 4° C. for 1 hour with 10% trichloroacetic acid and then stained with 0.2% sulforhodamine B (SRB)/1% acetic acid for 20 minutes at room temperature. The unbound dye was rinsed away with 1% acetic acid, and the bounded SRB was then extracted with 200 μl of 10 mM Tris base. The absorbance was measured at 515 nm using a 96-well microtiter plate reader (Spectra Max 250, Molecular Devices). The IC50 values were calculated using a KaleidaGraph program. The experiments were performed twice.
For orientation: In SRB staining, fixed cells bind dye roughly in proportion to their protein.

Data set [2] is described as follows: Half-life in mouse plasma. The conditions noted are these: frozen mouse plasma. As for the experimental part:
[…] At Time Zero, aliquotted 75 μl from each sample and added 150 μl of acetonitrile. Centrifuged the white precipitate at 13500 rpm for 3 minutes. Transferred all the clear supernatant into another microcentrifuge tube and repeated the centrifuging step (13500 rpm/3 min). Carefully pipetted 150 μl of the clear supernatant into labeled HPLC sample tubes and tried to avoid pipetting any protein pellets. The samples were analyzed by HPLC to measure remaining compound at each time point by comparison with authentic standards.

A further data set concerns the target T1, CYP2C19 (Homo sapiens, UniProt P33261).
T1 construct: purchased BD GenTest, Woburn, Mass
Put plainly: Cytochrome P450 inhibition, CYP2C19. Type of data set: in vitro ADME.

Data set [3] is described as follows: Plasma protein binding (ultrafiltration). Type of data set: in vitro ADME. The conditions noted are these: mouse or human plasma (species not given), 37° C. As for the experimental part: Plasma protein binding studies were performed as follows. Compounds were dissolved in DMSO, then diluted into either fresh or thawed samples of mouse or human plasma and incubated at 37° C. Time points of 50 μL were mixed with 100 μl of acetonitrile and centrifuged at ˜14000 rpm for 3 minutes. A 100 μL aliquot was removed from the supernatant and set aside for analysis to indicate compound in the total fraction. The remaining supernatant was transferred onto a Microcon ultrafiltration device fitted with a YM10 membrane and centrifuged to separate protein-bound material. A 50 μL aliquot of the protein-free filtrate was mixed with 100 μL of acetonitrile, centrifuged at ˜14000 rpm for 3 minutes, then 100 μL of the supernatant was collected and analyzed to determine the amount of compound not protein bound. The amount of compound in the total sample and in the protein-free fraction were determined by HPLC analysis against authentic standards.

A further data set concerns the target T2, CYP3A4 (Homo sapiens, UniProt P08684).
T2 construct: purchased BD GenTest, Woburn, Mass
Description: Cytochrome P450 inhibition (BD GenTest kit, BFC substrate), CYP3A4. The class given is in vitro ADME. An excerpt:
Following the procedure of Examples 39 (when R=methyl) and 42 (when R=CF3), the additional compounds shown in Table 2 were made by replacing (2-(tert-butyldimethyl-silyloxy)-methylthiazol-4-yl)methyltri-n-butyl-phosphonium chloride with the corresponding phosphonium chloride. Cytotoxicity data (Table 2) was obtained as described in Example 48. Cytochrome P450 inhibition data (Table 3) was obtained using the initial rate method against BFC substrate.
Cytochrome P450 inhibition measurements were performed using a commercially-available kit (BD GenTest, Woburn, Mass.), using BFC as substrate against CYP3A4.

Data set [4] concerns Human non-small cell lung cancer cell line A549. Put plainly: SRB cytotoxicity assay, A549. The class given is cell-based. As for the experimental part: as §1, §2, §3
Data set [5] in a line: Compound solubility in phosphate-buffered saline. Type of data set: physicochemical. The settings on record: aqueous buffer, kinetic from dmso stock; 5 μL of 20 mg/mL DMSO stock in 95 μL phosphate-buffered saline, 0.45 micron filter, HPLC. How it is done: Compound solubility was determined as follows: 5 μL of stock solution (at 20 mg/mL in DMSO) was added to 95 μL of phosphate-buffered saline. After being vortexed for about 10 seconds, the solution/suspension was filtered through a 0.45 micron filter and the amount of analyte was quantitated by HPLC. Solubilities (mg/mL) determined were as follows: epothilone D, <0.06; trans-9,10-dehydroepothilone D, <0.06; 21-OH-26-F3-trans-9,10-dehydroepothilone D, 0.1; 21-amino-trans-9,10-dehydroepothilone D, >0.6; 21-amino-26-F3-trans-9,10-dehydroepothilone D, >0.6; 26-F3-trans-9,10-dehydroepothilone D, <0.06; 21-OH-trans-9,10-dehydroepothilone D, 0.1; KOSN 1635, <0.02; KOSN 1632, 0.12.

The target of the next data set is T3, CYP2C9 (Homo sapiens, UniProt P11712).
T3 construct: purchased BD GenTest, Woburn, Mass
Put plainly: Cytochrome P450 inhibition, CYP2C9. The class given is in vitro ADME.

Data set [6] has as its system human ovarian cancer cell line SKOV-3. Put plainly: SRB cytotoxicity assay, SKOV3. The class given is cell-based. How it is done: as §1, §2, §3
The nature of data set [7]: Half-life in human plasma. The settings on record: fresh human plasma. As for the experimental part:
Half-lives of compounds in fresh mouse and human plasma were determined by dissolving the compounds in DMSO and adding aliquots to samples of mouse or human plasma. At Time Zero, aliquotted 75 μl from each sample and added 150 μl of acetonitrile. Centrifuged the white precipitate at 13500 rpm for 3 minutes. Transferred all the clear supernatant into another microcentrifuge tube and repeated the centrifuging step (13500 rpm/3 min). Carefully pipetted 150 μl of the clear supernatant into labeled HPLC sample tubes and tried to avoid pipetting any protein pellets. The samples were analyzed by HPLC to measure remaining compound at each time point by comparison with authentic standards.

The subject of data set [8] is Human breast carcinoma cell line MCF-7. Description: SRB cytotoxicity assay, MCF-7. The class given is cell-based. As for the experimental part:
as §1, §2, §3

Where [9] appears, read: Homo sapiens, NCI/ADR-RES, 72 h, Table 1, 3 days, SRB, read-out: IC50 NCI/ADR.
The mark [10] stands for this setting: Homo sapiens, A549, 72 h, Table 1, 3 days, SRB, read-out: IC50 A549.
Setting [11] is: Homo sapiens, SK-OV-3, 72 h, Table 1, 3 days, SRB, read-out: IC50 SKOV3.
Where [12] appears, read: Homo sapiens, MCF7, 72 h, Table 1, 3 days, SRB, read-out: IC50 MCF-7.
Setting [13] is: Table 2, as described in Example 48, read-out: IC50 (nM) NCI/ADR.
Setting [14] is: Table 2, as described in Example 48, read-out: IC50 (nM) A549.
[15] abbreviates: Table 2, as described in Example 48, read-out: IC50 (nM) Skov.
[16] abbreviates: Table 2, as described in Example 48, read-out: IC50 (nM) MCF-7.

The term half-life denotes how long it takes for the measured level to halve. A high value points to slow loss. As a reminder, the solubility is the concentration that dissolves in the medium under given conditions.

Read-outs that look alike come from different tables or passages of the source.

T3 sequence (P11712 whole entry): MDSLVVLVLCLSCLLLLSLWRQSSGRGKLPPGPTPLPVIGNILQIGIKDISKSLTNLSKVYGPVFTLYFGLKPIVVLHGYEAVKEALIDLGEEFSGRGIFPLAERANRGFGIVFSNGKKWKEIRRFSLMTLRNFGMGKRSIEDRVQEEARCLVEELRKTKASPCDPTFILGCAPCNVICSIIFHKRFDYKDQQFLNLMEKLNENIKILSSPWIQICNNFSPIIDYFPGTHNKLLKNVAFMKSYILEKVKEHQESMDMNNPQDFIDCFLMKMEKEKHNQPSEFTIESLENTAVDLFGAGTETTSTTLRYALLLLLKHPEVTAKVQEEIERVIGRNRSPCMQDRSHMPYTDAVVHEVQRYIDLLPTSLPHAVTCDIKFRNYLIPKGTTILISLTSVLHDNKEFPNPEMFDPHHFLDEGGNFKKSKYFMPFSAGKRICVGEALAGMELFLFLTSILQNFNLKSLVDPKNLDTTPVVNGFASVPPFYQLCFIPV
T1 sequence (P33261 whole entry): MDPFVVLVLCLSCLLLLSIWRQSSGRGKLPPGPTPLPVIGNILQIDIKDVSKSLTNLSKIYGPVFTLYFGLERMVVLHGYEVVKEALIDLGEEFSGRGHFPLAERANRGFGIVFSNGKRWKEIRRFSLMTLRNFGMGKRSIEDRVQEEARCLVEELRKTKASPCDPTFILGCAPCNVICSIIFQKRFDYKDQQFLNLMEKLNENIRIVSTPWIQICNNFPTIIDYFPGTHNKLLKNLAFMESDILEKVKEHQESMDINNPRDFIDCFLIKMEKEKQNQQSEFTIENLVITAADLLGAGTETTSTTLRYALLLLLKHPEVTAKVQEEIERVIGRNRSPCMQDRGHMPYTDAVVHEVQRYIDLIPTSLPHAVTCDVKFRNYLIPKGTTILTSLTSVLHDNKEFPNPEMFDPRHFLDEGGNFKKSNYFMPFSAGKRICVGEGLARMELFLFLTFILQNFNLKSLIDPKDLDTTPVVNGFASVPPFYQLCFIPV
T2 sequence (P08684 whole entry): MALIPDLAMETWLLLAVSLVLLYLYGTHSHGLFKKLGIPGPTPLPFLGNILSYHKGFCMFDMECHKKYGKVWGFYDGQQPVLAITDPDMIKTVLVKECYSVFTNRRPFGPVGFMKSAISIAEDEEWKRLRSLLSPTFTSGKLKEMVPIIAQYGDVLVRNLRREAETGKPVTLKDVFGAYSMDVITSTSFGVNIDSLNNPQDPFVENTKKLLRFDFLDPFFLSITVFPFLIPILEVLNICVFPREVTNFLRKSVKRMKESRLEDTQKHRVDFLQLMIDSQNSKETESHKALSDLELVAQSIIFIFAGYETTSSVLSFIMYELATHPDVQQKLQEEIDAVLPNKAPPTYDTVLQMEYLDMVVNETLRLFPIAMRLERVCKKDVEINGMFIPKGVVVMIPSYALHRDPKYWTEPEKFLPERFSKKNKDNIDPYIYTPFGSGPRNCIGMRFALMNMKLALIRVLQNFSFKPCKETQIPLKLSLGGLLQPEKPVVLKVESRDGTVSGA

For the compound `C/C1=C/C[C@@H](/C(C)=C/c2csc(C)n2)OC(=O)C[C@H](O)C(C)(C)C(=O)[C@H](C)[C@@H](O)[C@@H](C)/C=C/C1` (relative stereo) [9,10-dehydroepothilone D, trans-9,10-dehydroepothilone D], the IC50 in data set [1] (setting [9]) stood at 6.2 nM; against CYP2C19 (human), 2000 nM; against CYP3A4 it was 1600 nM; in data set [4] (setting [10]), 4.7 nM; against CYP2C9 (human), 10800 nM; in data set [6] (setting [11]) it was 6.2 nM. Further, the IC50 in data set [8] (setting [12]) came to 2 nM. In addition, the half-life in data set [2] was 47 min; in data set [7], over 1440 min. Also, the “percentage of compound protein bound” value in data set [3] is recorded as 96.6%. Further, in data set [5], the solubility is under 60 µg/mL.
In the case of `C/C1=C/C[C@@H](/C(C)=C/c2ccc3ccccc3n2)OC(=O)C[C@H](O)C(C)(C)C(=O)[C@H](C)[C@@H](O)[C@@H](C)/C=C/C1` [17-des(2-methyl-4-thiazolyl)-17-(2-quinolyl)-9,10-dehydropeothilone D], the IC50 came out at 24 nM in data set [1] (setting [9]), 25 nM in data set [4] (setting [10]), 19 nM in data set [6] (setting [11]) and 8.9 nM in data set [8] (setting [12]).
Take `C/C(=C\c1csc(CN)n1)[C@@H]1C/C=C(/C(F)(F)F)C/C=C/[C@H](C)[C@H](O)[C@@H](C)C(=O)C(C)(C)[C@@H](O)CC(=O)O1` [21-amino-9,10-dehydro-26-trifluoroepothilone D]: the IC50 is 330 nM in data set [1] (setting [9]), 35 nM in [4] (setting [10]), 40 nM in data set [6] (setting [11]) and 9.7 nM in data set [8] (setting [12]). In addition, the solubility in data set [5] was over 600 µg/mL.
With `C/C1=C/C[C@@H](/C(C)=C/n2nnc3ccccc32)OC(=O)C[C@H](O)C(C)(C)C(=O)[C@H](C)[C@@H](O)[C@@H](C)/C=C/C1` [KOSN-1674], the IC50 was 180 nM in data set [1] (setting [13]), 42 nM in [4] (setting [14]), 50 nM in data set [6] (setting [15]) and 34 nM in [8] (setting [16]).
As for `C/C1=C/C[C@@H](/C(C)=C/c2cccnc2)OC(=O)C[C@H](O)C(C)(C)C(=O)[C@H](C)[C@@H](O)[C@@H](C)/C=C/C1` [KOSN-1690], the IC50 is 110 nM in data set [1] (setting [13]), 38 nM in data set [4] (setting [14]), 39 nM in [6] (setting [15]) and 35 nM in data set [8] (setting [16]).
`C/C1=C/C[C@@H](/C(C)=C/c2ccc(CO)cn2)OC(=O)C[C@H](O)C(C)(C)C(=O)[C@H](C)[C@@H](O)[C@@H](C)/C=C/C1` [KOSN-1703]: the IC50 was found to be 7.1 nM in [1] (setting [13]); 10200 nM at CYP2C19; 2.4 nM in [4] (setting [14]); 4000 nM at CYP2C9; 4.5 nM in [6] (setting [15]); 0.61 nM in data set [8] (setting [16]).
Regarding `C/C1=C/C[C@@H](/C(C)=C/c2c[nH]cn2)OC(=O)C[C@H](O)C(C)(C)C(=O)[C@H](C)[C@@H](O)[C@@H](C)/C=C/C1` [KOSN-1712], the IC50 in data set [1] (setting [13]) worked out at 220 nM; in data set [4] (setting [14]), 31 nM; in data set [6] (setting [15]) it was 37 nM; in data set [8] (setting [16]) it was 20 nM.
On to `C/C1=C/C[C@@H](/C(C)=C/c2cc(C)on2)OC(=O)C[C@H](O)C(C)(C)C(=O)[C@H](C)[C@@H](O)[C@@H](C)/C=C/C1` [KOSN-1724], for which the IC50 in [1] (setting [13]) stood at 6.1 nM; against CYP2C19, 10900 nM; in data set [4] (setting [14]), 5.3 nM; against CYP2C9 it was 12900 nM; in [6] (setting [15]), 5.3 nM; in data set [8] (setting [16]) it was 2.5 nM.
Consider `C/C1=C/C[C@@H](/C(C)=C/c2csc(CN3CCOCC3)n2)OC(=O)C[C@H](O)C(C)(C)C(=O)[C@H](C)[C@@H](O)[C@@H](C)/C=C/C1` [KOSN-1727], for which the IC50 amounted to 410 nM in [1] (setting [13]), 420 nM in data set [4] (setting [14]), 490 nM in data set [6] (setting [15]) and 390 nM in data set [8] (setting [16]).
On to `COc1ccnc(/C=C(\C)[C@@H]2C/C=C(/C)C/C=C/[C@H](C)[C@H](O)[C@@H](C)C(=O)C(C)(C)[C@@H](O)CC(=O)O2)c1` [KOSN-1756], for which the IC50 was found to be 4.9 nM in data set [1] (setting [13]); 1900 nM at CYP2C19; 4 nM in data set [4] (setting [14]); 7100 nM at CYP2C9; 4 nM in [6] (setting [15]); 2.1 nM in data set [8] (setting [16]).
For `COC(=O)c1ccc(/C=C(\C)[C@@H]2C/C=C(/C)C/C=C/[C@H](C)[C@H](O)[C@@H](C)C(=O)C(C)(C)[C@@H](O)CC(=O)O2)nc1` [KOSN-1765], the IC50 in data set [1] (setting [13]) turned out to be 360 nM; in data set [4] (setting [14]), 350 nM; in [6] (setting [15]) it was 220 nM; in data set [8] (setting [16]), 44 nM.

The values above are taken from patent publication US20040152708A1, “Trans-9,10-dehydroepothilone C and D, analogs thereof and methods of making the same” (priority 2002, published 2004).
